Measurements from paper PMC9884808, “Pharmacokinetics, tissue distribution, and antitumor activity of a novel compound, NY-2, in non-small cell lung cancer” (Frontiers in Pharmacology, 2023).
Marks after values point to notes of the source that are not given here.

Legend:
[1] = Hepatotoxicity and nephrotoxicity experiments in KM mice; type: in vivo; conditions: for pathological changes of liver and kidney tissues (H&E): vs control; for effect on overall antioxidant capacity: T-AOC kit, ABTS method
Protocol: Animal experiments were approved by the Ethics Committee on Laboratory Animal Management of Shenyang Pharmaceutical University (Approval Document No. SYPU-SQ-001). All animals received humane care according to the local guidelines for the Care and Use of Laboratory Animals of the Shenyang Pharmaceutical University. All animals were housed under specific pathogen-free (SPF) conditions at 25°C with 50% humidity, with free access to food and water for 7 days to adapt. KM mice (male, 4–5 weeks old and weighing 18–22 g) were purchased from Liaoning Changsheng Biotechnology Co., Ltd. (Liaoning, China, animal license #SCXK-2020–0001). For the hepatotoxicity and nephrotoxicity assays, NY-2 was injected via tail vein into KM mice, and the results were used in deciding on the test dose for antitumor activity in a nude mouse cancer model. Its influence on the immune system was also determined. The treatment groups were ZLDI-8, NY-2, DMSO control, and normal saline control, with six mice in each group. The mice were fasted for 12 h before the experiment, but were allowed to drink water freely. ZLDI-8 and NY-2 were dissolved in 1% DMSO containing 1% Tween and 6 mg/kg was administered by a daily tail vein injection for seven consecutive days ([Lu et al., 2020]).
After injection of the compounds, blood was drawn and serum was collected for the determination of ALT and AST levels (Nanjing Jiancheng Bioengineering Institute, China, C009-2-1 and C010-2-1) to assess liver function. Serum creatinine (sCr, Nanjing Jiancheng Bioengineering Institute, China, C011-2-1) and blood urea nitrogen (BUN, Nanjing Jiancheng Bioengineering Institute, China, C013-2-1) were measured to assess renal function. Tumor necrosis factor-α (TNF-α, Cusabio, Wuhan, China, CSB-E04741m) and interleukin-6 (IL-6, Cusabio, Wuhan, China, CSB-E04639m) were used as markers to evaluate the immune inflammatory response, and an assay kit (T-AOC, S0119, Beyotime) was used to measure total antioxidant capacity by the ABTS method. Mice were euthanized by cervical dislocation, liver and kidney tissue was removed and fixed in formalin, dehydrated in ethanol, embedded in paraffin, and sectioned for staining with hematoxylin and eosin (H&E).
(§1) KM mice were treated with ZLDI-8 or NY-2 by tail vein injection (6 mg/kg) for 7 days, then the mice were euthanized and liver and kidney tissues were removed and sectioned. For the experiment with BALB/c nude mice, the tail vein injections of NY-2 (6 mg/kg) were continued for 28 days, and the lungs, tumor, heart, liver, and kidney were removed. Trimmed tissue samples were fixed in 4% paraformaldehyde for 24 h, dehydrated in graded ethanol solutions, embedded in paraffin and sectioned. Sections for staining were dewaxed with xylene and then rehydrated, and hematoxylin-eosin staining was performed, after which the sections were again dehydrated in ethanol and cleared with xylene before being mounted on a slide, cover-slipped and examined microscopically. The remainder of the tumors and tissues was frozen in liquid nitrogen for other studies.

A549 cells [2] = assay: Apoptosis, annexin-V/PI double staining; type: cell-based, human; conditions: 48 h, control 0.86 ± .05%
Protocol: For the apoptosis assay, cells were seeded into 6-well plates at 1× 10^5 cells per well, and after attachment for 4–6 h, they were incubated with different concentration of NY-2 for 48 h. After washing with 1×PBS, the cells were stained with Hoechst 33342 (5 μg/mL, 1 mL per well, C1022, Beyotime Biotechnology, China) for 20 min in a 37°C incubator followed by two washes with PBS. The number of apoptotic cells was counted under an inverted fluorescence microscope (Olympus, Japan). Apoptosis was also determined using an annexin V-FITC apoptosis detection kit (ABS50001, Absin Bioscience Inc., Shanghai, China). Cells were plated in 100 mm Petri dishes at a density of 1 × 10^6 cells/dish, after 4–6 h for attachment, cells were incubated with different concentrations of NY-2 for 48 h. For each sample, cells were harvested by trypsin digestion without EDTA and washed with 1 × PBS. Cells were resuspended in 300 μL of binding buffer, and 5 μL of annexin V-FITC solution were added and incubated at room temperature in the dark for 15 min, followed by the addition of 5 μL of propidium iodide (PI) solution. The sample staining was assessed by flow cytometry (BD Co., United States).

Notch1 and integrinβ1 = assay: Western blot protein analysis; type: cell-based, human
Excerpt: Antibodies against ADAM17 (Cat. No. ab39163), Notch1 (Cat. No. ab52627), integrin β1 (Cat. No. ab52971), β-actin (Cat. No. ab8226), and anti-rabbit IgG (Cat. No. ab6728) and anti-mouse IgG (Cat. No. ab190475) secondary antibodies conjugated with horseradish peroxidase (HRP) were purchased from Abcam (Cambridge, United Kingdom). Total protein was extracted from HCC cells, and samples were separated by SDS-PAGE and blotted to polyvinylidene fluoride (PVDF) membranes (Millipore, Billerica, MA, United States). The membranes were blocked and then incubated with primary antibodies, followed by washing and incubation with HRP-conjugated secondary antibodies. Stained blots were developed with enhanced chemiluminescence reagents (Pierce, Rockford, IL, United States) and imaged on X-ray film.

A549 cells [3] = conditions: 28 days
Protocol: The experimental groups included the normal (no tumor cells, vehicle) group, the model (tumor cells, vehicle) group, NY-2-treated, and paclitaxel-treated groups, with six mice in each group. After 7 days for adaptation, 200 µL of A549 cells (2× 10^6 cells/mice) in serum-free medium were injected into the tail vein except for those in the normal group. Drug or vehicle administration via tail vein was started on the next day. The normal group and model group were given the same amount of sterile water containing 1% DMSO and 1% Tween as vehicle control. […] Injections were done every other day. The general conditions of the nude mice, with regard to activity and food ingestion, were observed every day, and their body weight was measured every other day.
as §1, with “Trimmed tissue samples were fixed in 4% paraformaldehyde for 24 h, dehydrated in graded ethanol solutions, embedded in paraffin and sectioned.” left out

[4] = 6 mg/kg daily tail vein injection, 7 days
[5] = nude mice, NY-2 6 mg/kg, paclitaxel 1 mg/kg, n=6, mean ± SEM

For Cc1c(C=C2C(=O)NC(=S)NC2=O)c2ccccc2n1CCOc1ccc(F)cc1 [NY-2], the “effect on IL-6 and TNF-α levels compared with the control group” value [1, 4] was “no significant effect”, the “levels of AST, ALT, sCr, and BUN compared with the control group” value ([1]; 6 mg/kg daily tail vein injection, 7 days, serum) was “no significant differences” and the “pathological changes of liver and kidney tissues (H&E)” value [1, 4] was “no obvious pathological changes”. The “effect on overall antioxidant capacity” value [1] was “neither ZLDI-8 nor NY-2 had any overt effect”, the “percentage of A549 cells in apoptosis” value (A549 cells [2]; 5 μM) was 5.45 ± 3.28% and the “percentage of A549 cells in apoptosis” value (A549 cells [2]; 10 μM) was 20.29 ± 3.11%. For the same compound, the “expression of Notch1 and integrinβ1” value (Notch1 and integrinβ1) was “reduced the expression of Notch1 and integrinβ1in a dose-dependence manner”, the “Body weight before dissection” value (A549 cells [3]; nude mice with A549 lung metastasis, tail vein every other day, NY-2 6 mg/kg, paclitaxel 1 mg/kg, n=6, mean ± SEM) was 23.48 ± 0.50 g and the “Heart as a proportion of body weight” value (A549 cells [3]; [5]) was 0.56 ± 0.03 10^-2. The “Kidney as a proportion of body weight” value (A549 cells [3]; [5]) was 1.74 ± 0.03 10^-2, the “Liver as a proportion of body weight” value (A549 cells [3]; [5]) was 5.45 ± 0.05# 10^-2 and the “Lung as a proportion of body weight” value (A549 cells [3]; [5]) was 0.67 ± 0.03 10^-2. For the same compound, the “Quality of the heart” value (A549 cells [3]; [5]) was 0.13 ± 0.01 g, the “Quality of the kidney” value (A549 cells [3]; [5]) was 0.41 ± 0.01 g and the “Quality of the liver” value (A549 cells [3]; [5]) was 1.28 ± 0.04 g. For the same compound, the “Quality of the lung” value (A549 cells [3]; [5]) was 0.16 ± 0.01 g, the “average percentage of metastatic lung surface area to the total lung area” value (A549 cells [3]; nude mice, A549 tail vein, NY-2 6 mg/kg every other day, model group 12.91 ± 11.93%) was 0.25 ± .62% and the “infiltration of A549 cells in the lung tissue (H&E)” value (A549 cells [3]; nude mice, NY-2 6 mg/kg, paclitaxel 1 mg/kg) was “no infiltration of A549 cells in the lung tissue”. The “toxic effects on the heart, liver or kidney (H&E)” value (A549 cells [3]; nude mice, tail vein injection 6 mg/kg) was “no obvious toxic effects”.
For Cc1ccc(OCCn2c(C)c(C=C3C(=O)NC(=S)NC3=O)c3ccccc32)c(C)c1 [ZLDI-8, reference compound], the “effect on IL-6 and TNF-α levels compared with the control group” value [1, 4] was “no significant effect”, the “BUN compared with the control group” value ([1]; 6 mg/kg daily tail vein injection, 7 days, serum, only significant difference) was “possible decrease” and the “pathological changes of liver and kidney tissues (H&E)” value [1, 4] was “no obvious pathological changes”. The “effect on overall antioxidant capacity” value [1] was “neither ZLDI-8 nor NY-2 had any overt effect”.
